The source of these data is US20210330611A1, “THERAPY FOR NEUROLOGICAL DISEASES/DISORDERS” (priority 2020, published 2021).

Holding throughout (type): cell-based, rat
Test [1] has as its system fibrin-induced microglia activation. In words: Image-based assay of fibrin-induced microglia activation (HTS and dose response). The note with it: for inhibition at 10 µM / pIC50: Rattus norvegicus, Microglia; for inhibition at 10 µM: read-out: Fibrin % inhibition; for pIC50: Table 7, read-out: fib_IC50.
Test [2] concerns LPS-induced microglia activation. In words: Image-based assay of LPS-induced microglia activation (HTS and dose response).
The test system of test [3] is fibrin- and LPS-induced microglia activation. In words: cells. Conditions: for Activity: Table 7, fib = fibrin, LPS, tox = toxicity.
The mark [4] stands for this setting: Rattus norvegicus, Microglia, 48 h, read-out: LPS % inhibition.
Setting [5] is: primary microglia HTS, fibrin stimulation, activation = cell size >800 μm2.
Setting [6] is: primary microglia HTS, LPS stimulation, activation = cell size >800 μm2.
Setting [7] is: quadrant by fibrin and LPS inhibition in HTS of 1907 compounds.
Setting [8] is: Rattus norvegicus, Microglia, 48 h, primary microglia HTS, LPS stimulation, activation = cell size >800 μm2; read-out: LPS % inhibition.
[9] abbreviates: primary microglia HTS, fibrin stimulation, increased cell size (>800 μm^2) as marker of activation.
[10] abbreviates: Rattus norvegicus, Microglia, 48 h, primary microglia HTS, LPS stimulation; increased cell size (>800 μm^2) as marker of activation; read-out: LPS % inhibition.
The mark [11] stands for this setting: primary microglia HTS, fibrin stimulation, compounds at 10 μM.
Where [12] appears, read: Rattus norvegicus, Microglia, primary microglia HTS, LPS stimulation, compounds at 10 μM; read-out: LPS % inhibition.
Where [13] appears, read: quadrant by fibrin and LPS inhibition, HTS at 10 μM.
Setting [14] is: primary microglia HTS, fibrin stimulation, cell size >800 μm2 as marker of activation.
[15] abbreviates: Rattus norvegicus, Microglia, 48 h; read-out: LPS % inhibition.
Where [16] appears, read: classification by fibrin and LPS inhibition in HTS.
Where [17] appears, read: Rattus norvegicus, Microglia, Table 7; read-out: LPS_IC50.

pIC50: −log10 of the molar value. Structures can show the parent of a compound that is named as a salt. Where two headings read alike, the source gives them in different places.

In the case of `NS(=O)(=O)c1cc(C(=O)O)c(NCc2ccco2)cc1Cl` [Furosemide], the inhibition at 10 µM was -5% in test [1] and 25% in test [2] (setting [4]). The “Quadrant (FIG. 5b)” value in test [3] is on record as “Q4”.

With `Cc1cnc(C(=O)NCCc2ccc(S(=O)(=O)NC(=O)NC3CCCCC3)cc2)cn1` [Glipizide], the inhibition at 10 µM in test [1] turned out to be 12%; in test [2] (setting [4]) it was 18%. Also, in test [3], the “Quadrant (FIG. 5b)” value was “Q4”.

`C[N+]1(C)CCC(OC(=O)C(O)(c2ccccc2)C2CCCC2)C1` (centres unmarked) [Glycopyrrolate]: the figures for the inhibition at 10 µM in test [1] and in test [2] (setting [4]) were -33% and 3%, respectively. In addition, in test [3], the “Quadrant (FIG. 5b)” value is “Q4”.

As for `N=C(N)NCCN1CCCCCCC1` [Guanethidine], the inhibition at 10 µM in test [1] was -44%; in test [2] (setting [4]), 12%. Further, the “Quadrant (FIG. 5b)” value in test [3] is listed as “Q4”.

Regarding `COc1ccc2c(c1OC)C(=O)O[C@@H]2[C@H]1c2cc3c(cc2CCN1C)OCO3` [Hydrastine (1r,9s)], the Fibrin % inhibition in test [1] (setting [5]) is −27%. This compound had an LPS % inhibition in test [2] (setting [6]) of 10%. Besides, the “Quadrant (FIG. 5b)” value in test [3] (setting [7]) is “Q4”.

For the compound `CC(C)[N+]1(C)[C@@H]2CC[C@H]1CC(OC(=O)C(CO)c1ccccc1)C2.[Br-]` (some centres unmarked) [Ipratropium Bromide], the Fibrin % inhibition in test [1] was 6%. This compound returned an LPS % inhibition in test [2] of 8%. In addition, the “Quadrant (FIG. 5b)” value in test [3] is on record as “Q4”.

Consider `O.OC[C@H]1O[C@@H](O[C@H]2[C@H](O)[C@@H](O)C(O)O[C@@H]2CO)[C@H](O)[C@@H](O)[C@H]1O` (some centres unmarked) [Lactose Monohydrate], for which the inhibition at 10 µM in test [1] (setting [5]) was -22%; in test [2] (setting [8]) it was 9%. Moreover, the “Quadrant (FIG. 5b)” value in test [3] (setting [7]) is given as “Q4”.

Consider `O=C(O)COCCN1CCN([C@H](c2ccccc2)c2ccc(Cl)cc2)CC1` [Levocetirizine Dihydrochloride], for which the figures for the inhibition at 10 µM in test [1] and in test [2] (setting [4]) were -44% and -2%, respectively. The “Quadrant (FIG. 5b)” value in test [3] is recorded as “Q4”.

On to `C#C[C@]1(O)CC[C@H]2[C@@H]3CCC4=CC(=O)CC[C@@H]4[C@H]3CC[C@@]21CC` [Levonorgestrel], for which the results for the inhibition at 10 µM in test [1] (setting [5]) and in test [2] (setting [8]) were 16% and -13%, respectively. In addition, the “Quadrant (FIG. 5b)” value in test [3] (setting [7]) is “Q4”.

As for `CCN(CC)CC(=O)Nc1c(C)cccc1C` [Lidocaine], the inhibition at 10 µM in test [1] is -23%; in test [2] (setting [4]), 8%. Moreover, the “Quadrant (FIG. 5b)” value in test [3] was “Q4”.

With `O=C(O)CCCCC1CCSS1` (centres unmarked) [Lipoic Acid], the Fibrin % inhibition in test [1] (setting [5]) is listed as −38%. Moreover, in test [2] (setting [6]), the LPS % inhibition is listed as 39%. The “Quadrant (FIG. 5b)” value in test [3] (setting [7]) is recorded as “Q4”.

Regarding `NCCCC[C@H](N[C@@H](CCc1ccccc1)C(=O)O)C(=O)N1CCC[C@H]1C(=O)O` [Lisinopril], the inhibition at 10 µM in test [1] came to 1%; in test [2] (setting [4]), 3%. Moreover, the “Quadrant (FIG. 5b)” value in test [3] is reported as “Q4”.

With `CCn1cc(C(=O)O)c(=O)c2cc(F)c(N3CCNC(C)C3)c(F)c21` (centres unmarked) [Lomefloxacin], the values for the inhibition at 10 µM in test [1] and in test [2] (setting [4]) were 7% and 15%, respectively. Moreover, in test [3], the “Quadrant (FIG. 5b)” value is “Q4”.

Regarding `C#CC(C)(O)CC` (centres unmarked) [Meparfylon], the Fibrin % inhibition in test [1] (setting [9]) is −49%. The LPS % inhibition in test [2] (primary microglia HTS, LPS stimulation; increased cell size (>800 μm^2) as marker of activation) is 3%. For the same compound, in test [3] (setting [7]), the “Quadrant (FIG. 5b)” value was “Q4”.

For `CN1CCN2c3ccccc3Cc3ccccc3C2C1` (centres unmarked) [Mianserin], the inhibition at 10 µM was -18% in test [1] and 17% in test [2] (setting [4]). The “Quadrant (FIG. 5b)” value in test [3] is “Q4”.

As for `CN(C)c1ccc(O)c2c1C[C@H]1C[C@H]3[C@H](N(C)C)C(O)=C(C(N)=O)C(=O)[C@@]3(O)C(O)=C1C2=O` [Minocycline], the inhibition at 10 µM in test [1] (setting [9]) is -6%; in test [2] (setting [10]), 16%. In test [3] (setting [7]), the “Quadrant (FIG. 5b)” value is “Q4”.

With `Nc1cc(N2CCCCC2)nc(N)[n+]1[O-]` [Minoxidil], the values for the inhibition at 10 µM in test [1] (setting [9]) and in test [2] (setting [10]) were -5% and 9%, respectively. Also, in test [3] (setting [7]), the “Quadrant (FIG. 5b)” value is “Q4”.

With `COc1ccc2cc([C@H](C)C(=O)O)ccc2c1` [Naproxen], the results for the inhibition at 10 µM in test [1] and in test [2] (setting [4]) were -25% and 15%, respectively. Also, in test [3], the “Quadrant (FIG. 5b)” value is recorded as “Q4”.

As for `O=C(O)c1cccnc1` [Niacin], the inhibition at 10 µM came out at 8% in test [1] and 13% in test [2] (setting [4]). For the same compound, the “Quadrant (FIG. 5b)” value in test [3] was “Q4”.

`COC(=O)C1=C(C)NC(C)=C(C(=O)OC)C1c1ccccc1[N+](=O)[O-]` [Nifedipine]: the results for the inhibition at 10 µM in test [1] and in test [2] (setting [4]) were -36% and 2%, respectively. The “Quadrant (FIG. 5b)” value in test [3] is on record as “Q4”.

With `CS(=O)(=O)Nc1ccc([N+](=O)[O-])cc1Oc1ccccc1` [Nimesulide], the inhibition at 10 µM in test [1] is -19%; in test [2] (setting [4]), 13%. Further, in test [3], the “Quadrant (FIG. 5b)” value was “Q4”.

Turning to `C#C[C@]1(O)CC[C@H]2[C@@H]3CCC4=C(CCC(=O)C4)[C@H]3CC[C@@]21C` [Norethynodrel], the inhibition at 10 µM worked out at 1% in test [1] and 10% in test [2] (setting [4]). Further, the “Quadrant (FIG. 5b)” value in test [3] is reported as “Q4”.

As for `C#CC1(O)CC[C@H]2[C@@H]3CCC4=CC(=O)CC[C@@H]4[C@H]3CC[C@@]21CC` (some centres unmarked) [Norgestrel], the inhibition at 10 µM came out at 4% in test [1] (setting [9]) and 22% in test [2] (setting [10]). In test [3] (setting [7]), the “Quadrant (FIG. 5b)” value is reported as “Q4”.

As to `Cc1nccn1CC1CCc2c(c3ccccc3n2C)C1=O` (centres unmarked) [Ondansetron], the inhibition at 10 µM in test [1] (setting [11]) is 106%; in test [1] (setting [9]), -6%; in test [2] (setting [10]), 14%; in test [2] (setting [12]), 92%. Also, the “Quadrant (FIG. 5b)” value in test [3] (setting [7]) is “Q4”; in test [3] (setting [13]), “Q2”.

Consider `CC(C)(CO)[C@@H](O)C(=O)NCCC(=O)NCCSSCCNC(=O)CCNC(=O)[C@H](O)C(C)(C)CO` [Pantethine], for which the values for the inhibition at 10 µM in test [1] and in test [2] (setting [4]) were -53% and 7%, respectively. In addition, the “Quadrant (FIG. 5b)” value in test [3] is listed as “Q4”.

As for `CC(N)C(O)c1ccccc1` (centres unmarked) [Phenylpropanolamine], the inhibition at 10 µM in test [1] was -2%; in test [2] (setting [4]), -6%. Further, the “Quadrant (FIG. 5b)” value in test [3] is “Q4”.

With `CC(N/C(=N\C#N)Nc1ccncc1)C(C)(C)C` (centres unmarked) [Pinacidil], the inhibition at 10 µM in test [1] (setting [14]) worked out at 15%; in test [2] (setting [15]), 26%. Also, the “Quadrant (FIG. 5b)” value in test [3] (setting [16]) was “Q4”.

On to `O=C(CCBr)N1CCN(C(=O)CCBr)CC1` [Pipobroman], for which the values for the inhibition at 10 µM in test [1] and in test [2] (setting [4]) were -28% and 0%, respectively. Also, the “Quadrant (FIG. 5b)” value in test [3] was “Q4”.

As to `COc1cc([C@@H]2c3cc4c(cc3[C@H](O)[C@H]3COC(=O)[C@H]23)OCO4)cc(OC)c1OC` [Podofilox, reference compound], the pIC50 is 7.85 in test [1] and 8.70 in test [2] (setting [17]). Moreover, the “Quadrant (FIG. 5b)” value in test [3] (Table 2, screen at 10 μM) is “Q2”. For the same compound, the Activity result in test [3] is recorded as “fib/LPS”.

Turning to `C[C@]12CC[C@H](O)CC1=CC[C@@H]1[C@@H]2CC[C@]2(C)C(=O)CC[C@@H]12` [Prasterone], the inhibition at 10 µM worked out at 1% in test [1] (setting [14]) and 15% in test [2] (setting [15]). Besides, the “Quadrant (FIG. 5b)” value in test [3] (setting [16]) was “Q4”.

On to `C[C@]12C=CC(=O)C=C1CC[C@@H]1[C@@H]2[C@@H](O)C[C@@]2(C)[C@H]1CC[C@]2(O)C(=O)CO` [Prednisolone, reference compound], for which the pIC50 in test [1] and in test [2] (setting [17]) was 8.70 each time. In addition, the inhibition at 10 µM in test [1] (setting [11]) came out at 97%; in test [1] (setting [9]) it was 114%; in test [2] (setting [10]), 100%; in test [2] (setting [12]), 87%. Moreover, the “Quadrant (FIG. 5b)” value in test [3] (Table 2, screen at 10 μM) is “Q2”; in test [3] (setting [7]) it was “Q2”; in test [3] (setting [13]), “Q2”. Also, the Activity entry in test [3] is recorded as “fib/LPS”.

On to `CC(C)C[C@H](CN)CC(=O)O` [Pregabalin], for which the inhibition at 10 µM in test [1] is -5%; in test [2] (setting [4]), 1%. Also, the “Quadrant (FIG. 5b)” value in test [3] is “Q4”.

`CCCNCC(O)COc1ccccc1C(=O)CCc1ccccc1` (centres unmarked) [Propafenone]: the figures for the inhibition at 10 µM in test [1] and in test [2] (setting [4]) were 16% and 21%, respectively. Further, the “Quadrant (FIG. 5b)” value in test [3] is listed as “Q4”.

As for `CN[C@@H](C)[C@@H](O)c1ccccc1` [Pseudoephedrine], the inhibition at 10 µM in test [1] (setting [14]) is -13%; in test [2] (setting [15]) it was 5%. In addition, in test [3] (setting [16]), the “Quadrant (FIG. 5b)” value is listed as “Q4”.

As to `Cc1cc(/C=C/c2ccc3cc(N(C)C)ccc3[n+]2C)c(C)n1-c1ccccc1` [Pyrvinium], the inhibition at 10 µM in test [1] amounted to 113%; in test [2] (Rattus norvegicus, Microglia, read-out: LPS % inhibition) it was 115%. In test [3], the “Quadrant (FIG. 5b)” value was “Q2”.

The term inhibition denotes the drop in the measured response relative to a control, in per cent.
